Holding throughout (assay type): cell-based
For one test, the system named is E. faecalis ATCC 29212. Kind of test: MIC (CLSI) against E. faecalis ATCC 29212. The conditions noted are these: E. faecalis ATCC 29212, n = 3.
The test system of test [1] is Candida albicans (ATCC 90028). Nature of the test: Antifungal MIC (EUCAST) against C. albicans. The conditions noted are these: C. albicans ATCC 90028, n = 2.
Test [2] relates to Candida parapsilosis (ATCC 22019). Nature of the test: Antifungal MIC (EUCAST) against C. parapsilosis. The conditions noted are these: C. parapsilosis ATCC 22019, n = 2.
A further test concerns S. aureus ATCC 29213. Nature of the test: MIC (CLSI) against S. aureus ATCC 29213. The conditions noted are these: S. aureus ATCC 29213, n = 3.
A further test has as its system K. pneumonia ATCC 138830. Nature of the test: MIC (CLSI) against K. pneumoniae ATCC reference strain. The conditions noted are these: K. pneumonia ATCC 138830, n = 3.
In another test the test system is E. coli ATCC 25922. Nature of the test: MIC (CLSI) against E. coli ATCC 25922. To be noted: E. coli ATCC 25922, n = 3.
For test [3], the system named is Candida glabrata (ATCC 90030). Kind of test: Antifungal MIC (EUCAST) against C. glabrata. The conditions noted are these: C. glabrata ATCC 90030, n = 2.
The subject of another test is P. aeruginosa ATCC 27853. Kind of test: MIC (CLSI) against P. aeruginosa ATCC 27853. The conditions noted are these: P. aeruginosa ATCC 27853, n = 3.
Test [4] relates to human dermal fibroblasts (HDF). Nature of the test: Collagen production in vitro (Sircol kit). To be noted: 5 μM, versus negative control. The method, then: FIG. 3—Collagen synthesis by Human Dermal Fibroblasts (HDF), in presence of C16-KTTKS-OH (Matrixyl®), KTTK (C16Im)S and C16Im-KTTKS at 5 μM, using the Sircol™ Kit. Data are presented as mean±SEM (3 independent experiments in triplicates) expressed in collagen amount (% of control); *p<0.05, **p<0.01.
The point of conjugating antimicrobial ILs to a collagenesis-inducing peptide was to afford a simple construct able to exert a dual antimicrobial and skin rebuilding action. Therefore, the two best IL-KTTKS conjugates were further tested for their ability to promote collagen production by human dermal fibroblasts (HDF) in vitro. This was assessed using the Sircol® kit assay, whereby the amount of newly formed collagen in the ECM that is deposited in the microwell-plated cell cultures is solubilized in an acidic medium and next quantified through a collagen standard curve according to the Sircol® kit assay procedure (55). Assays were conducted in different conditions for comparison, namely, in the presence of the reference cosmeceutical Matrixyl® (positive control—C16-KTTKS-OH), of the test conjugates KTTK(C16Im)S and C16Im-KTTKS, and in the absence of any peptide (negative control).

The test system of test [5] is P. aeruginosa (PA004) MDR clinical isolate. The conditions noted are these: MDR isolate PA004, n = 3.
In test [6] the test system is S. aureus (SA007) MDR clinical isolate. The conditions noted are these: for MIC: MDR isolate SA007, n = 3.
Test [7] concerns S. epidermidis ATCC 14990. Kind of test: MIC (CLSI) against S. epidermidis ATCC 14990. To be noted: S. epidermidis ATCC 14990, n = 3.
The test system of test [8] is Gram-negative and Gram-positive bacteria (ATCC reference strains). Nature of the test: Antibacterial activity against ATCC reference strains, statements across species. The conditions noted are these: Gram-positive species at MIC values. Here is the method:
The antimicrobial activity of the IL-KTTKS conjugates was assessed in vitro against reference bacterial strains (American Type Culture Collection, ATCC). The minimal inhibitory concentration (MIC) was determined according to the Clinical and Laboratory Standards Institute (CLSI) guidelines (43) against Gram-positive (S. aureus, E. faecalis) and Gram-negative (E. coli, P. aeruginosa) bacteria. […] IL are in agreement with those previously reported (44).

A further test relates to S. aureus (ATCC 29213). Nature of the test: MIC and MBC in MHB and simulated wound fluid (SWF). To be noted: for MBC: S. aureus ATCC 29213 in MHB, n = 3; for antibacterial activity in simulated wound fluid (SWF): S. aureus, SWF compared with MHB. Here is the method:
The antibacterial activity of C16Im-KTTKS and KTTK(C16Im)S was also assessed in SWF (50) against S. aureus (ATCC 29213), to check if it was preserved in this medium.

The subject of another test is S. pyogenes ATCC 19615. Nature of the test: MIC (CLSI) against S. pyogenes ATCC 19615. To be noted: S. pyogenes ATCC 19615, n = 3.
Test [9] has as its system K. pneumoniae (KP010) MDR clinical isolate. To be noted: MDR isolate KP010, n = 3.

The structures appear in SMILES notation. Where “and” joins values, the source holds several entries; their conditions need not be identical. Equal values may be shown once. Read-outs that look alike come from different tables or passages of the source. Marks after values point to notes of the source that are not given here. Residues, ends and D or L forms follow the SMILES beside them. *: point of attachment. X1 = CCCCCCCCCCCCCCCCn1cc[n+](Cc2cn(CC(=O)*)nn2)c1; X2 = Cn1cc[n+](Cc2cn(CC(=O)*)nn2)c1 A value given as a limit tells only on which side of the number the result lay.

The values that follow come from US20250360179A1, “PEPTIDE-IONIC LIQUID CONJUGATE FOR THE PREVENTION AND/OR TREATMENT OF SKIN DISORDERS” (UNIVERSIDADE DO PORTO, priority 2022, published 2025).

A word on the MIC: it is the least concentration at which growth counts as inhibited. Consider `CCCCCCCCCCCCCCCCn1cc[n+](C)c1.[Br-]` [[C16M1Im][Br], reference compound], for which the MIC against E. faecalis ATCC 29212 is 0.94^c μM; in [1], 0.93 µM; in test [2], 0.93 µM; against S. aureus ATCC 29213 it was 0.94^d μM; against K. pneumonia ATCC 138830, 60 µM; against E. coli ATCC 25922, 60 µM. Further, the figures for the minimum inhibitory concentration (MIC) (in test [3]; in the test on P. aeruginosa ATCC 27853) were 0.93 µM and over 240 µM, respectively.
For `OC(Cn1cncn1)(Cn1cncn1)c1ccc(F)cc1F` [Fluconazole, reference compound], the minimum inhibitory concentration (MIC) came out at 0.5 mg/L in test [1] (Candida albicans, ATCC90028, read-out: MIC); 2 mg/L in test [2] (ATCC22019, read-out: MIC); 8 mg/L in test [3] (Nakaseomyces glabratus, ATCC90030, read-out: MIC).
Turning to `CCCCCCCCCCCCCCn1cc[n+](Cc2cn(CCCC[C@H](NC(=O)[C@@H](NC(=O)[C@@H](NC(=O)[C@@H](N)CCCCN)[C@@H](C)O)[C@@H](C)O)C(=O)N[C@@H](CO)C(N)=O)nn2)c1` [KTTK(C14Im)S], the MIC result against E. faecalis ATCC 29212 is “(52.6)^b μg/mL”; against S. aureus ATCC 29213, “(26.3) μg/mL”; with E. coli ATCC 25922, “(26.3) μg/mL”; in the test on P. aeruginosa ATCC 27853, “(52.6)^b μg/mL”.
In the case of `C[C@@H](O)[C@H](NC(=O)[C@@H](NC(=O)[C@@H](N)CCCCN)[C@@H](C)O)C(=O)N[C@@H](CCCCn1cc(C[n+]2ccn(C)c2)nn1)C(=O)N[C@@H](CO)C(N)=O` [KTTK(MeIm)S], the minimal inhibitory concentration (MIC) was > 954.2 μM and > 677.3 μg/mL in the test on E. faecalis ATCC 29212; > 954.2 μM and > 677.3 μg/mL in the test on S. aureus ATCC 29213; over 677.3 mg/L in the test on E. coli ATCC 25922; > 954.2 μM and > 677.3 μg/mL in the test with P. aeruginosa ATCC 27853.
Consider `C[C@@H](O)[C@H](NC(=O)[C@@H](NC(=O)[C@@H](N)CCCCn1cc(C[n+]2ccn(C)c2)nn1)[C@@H](C)O)C(=O)N[C@@H](CCCCN)C(=O)N[C@@H](CO)C(N)=O` [K(MeIm)TTKS], for which the minimal inhibitory concentration (MIC) against E. faecalis ATCC 29212 is > 1030.1 μM and > 731.2 μg/mL; against S. aureus ATCC 29213 it was > 1030.1 μM and > 731.2 μg/mL; in the test on E. coli ATCC 25922, over 731.2 mg/L; with P. aeruginosa ATCC 27853, > 1030.1 μM and > 731.2 μg/mL.
For the compound `C[C@@H](O)[C@H](NC(=O)[C@H](CCCCN)NC(=O)Cn1cc(C[n+]2ccn(C)c2)nn1)C(=O)N[C@H](C(=O)N[C@@H](CCCCN)C(=O)N[C@@H](CO)C(N)=O)[C@@H](C)O` [MeIm-KTTKS] (X2-KTTKS-NH2; N-terminus and C-terminus assumed), the minimal inhibitory concentration (MIC) in the test on E. faecalis ATCC 29212 was > 825.9 μM and > 633.4 μg/mL; against S. aureus ATCC 29213, > 825.9 μM and > 633.4 μg/mL; in the test with E. coli ATCC 25922, over 633.4 mg/L; with P. aeruginosa ATCC 27853, > 825.9 μM and > 633.4 μg/mL.
Take `CCCCCCCCCCCCCCCCn1cc[n+](Cc2cn(CC(=O)N[C@@H](CCCCN)C(=O)N[C@H](C(=O)N[C@H](C(=O)N[C@@H](CCCCN)C(=O)N[C@@H](CO)C(N)=O)[C@@H](C)O)[C@@H](C)O)nn2)c1` [Peptide C16Im-KTTKS] (X1-KTTKS-NH2; N-terminus and C-terminus assumed): the MIC entry with E. faecalis ATCC 29212 is “(28.0) μg/mL”; in [1], 4.6 mg/L; in test [5], “(18.5) μg/mL”; in [6] it was “(18.5)^a μg/mL”; in test [7] it was “(9.3) μg/mL”; in [2], “(2.3) μg/mL”. The minimum inhibitory concentration (MIC) entry against S. aureus ATCC 29213 is on record as “(14.0) μg/mL”; with S. pyogenes ATCC 19615, “(18.5) μg/mL”; against K. pneumonia ATCC 138830 it was “(26.8) μg/mL”; against E. coli ATCC 25922, “(14.0) μg/mL”; in test [3], “(4.6) μg/mL”; with P. aeruginosa ATCC 27853, “(28.0) μg/mL”. The MIC result in test [9] is reported as “(37.0) μg/mL”. The “collagen production (collagen amount, % of control)” value in [4] is recorded as “produce more collagen”. Moreover, in test [6] (MDR isolate SA007), the “MIC relative to that of ciprofloxacin” value is about 10 fold. In test [8], the “bacteriostatic or bactericidal action” value is given as “bactericidal”. In addition, the MBC entry against S. aureus (ATCC 29213) was “[32-64] μg/mL”. In addition, in the test on S. aureus (ATCC 29213), the “antibacterial activity in simulated wound fluid (SWF)” value is listed as “retain”.
Regarding `CCCCCCCCCCCCCCCCn1cc[n+](Cc2cn(CCCC[C@H](NC(=O)[C@@H](NC(=O)[C@@H](NC(=O)[C@@H](N)CCCCN)[C@@H](C)O)[C@@H](C)O)C(=O)N[C@@H](CO)C(N)=O)nn2)c1` [KTTK(C16Im)S], the minimal inhibitory concentration (MIC) result in the test with E. faecalis ATCC 29212 was “(29.9) μg/mL”; in [1], 5.0 mg/L; in test [5], 21.7 μM and 20.0 μg/mL; in test [6], 21.7 μM and 20.0 μg/mL; in [7], “(5.0) μg/mL”; in test [2] it was “(2.5) μg/mL”. In addition, the minimal inhibitory concentration (MIC) entry with S. aureus ATCC 29213 is recorded as “(12.9) μg/mL”; in the test with S. pyogenes ATCC 19615 it was “(10.0) μg/mL”; with K. pneumonia ATCC 138830, “(49.5) μg/mL”; in the test with E. coli ATCC 25922 it was “(6.45) μg/mL”; in test [3], “(5.0) μg/mL”; against P. aeruginosa ATCC 27853 it was “(29.9) μg/mL”. Further, the minimal inhibitory concentration (MIC) in test [9] came to 20.0 mg/L. In test [4], the “collagen production (collagen amount, % of control)” value was “produce more collagen”. The “bacteriostatic or bactericidal action” value in test [8] was “bactericidal”. Further, the MBC result against S. aureus (ATCC 29213) was “[64-128] μg/mL”. The “antibacterial activity in simulated wound fluid (SWF)” value in the test on S. aureus (ATCC 29213) is recorded as “slightly decrease”.
For `C[C@@H](O)[C@H](NC(=O)[C@@H](NC(=O)[C@@H](N)CCCCn1cc(C[n+]2ccn(C)c2)nn1)[C@@H](C)O)C(=O)N[C@@H](CCCCn1cc(C[n+]2ccn(C)c2)nn1)C(=O)N[C@@H](CO)C(N)=O` [K(MeIm)TTK(MeIm)S], the minimal inhibitory concentration (MIC) is > 1245.5 μM and > 1067.4 μg/mL in the test on E. faecalis ATCC 29212; > 1245.5 μM and > 1067.4 μg/mL in the test on S. aureus ATCC 29213; over 1067.4 mg/L with E. coli ATCC 25922; > 1245.5 μM and > 1067.4 μg/mL in the test on P. aeruginosa ATCC 27853.
